Experimental data as given in the supplement of paper PMC10307832.

Legend:
Test in all cases: relative viability (nuclei count vs DMSO), 5 days (fraction); higher = more cells survive
[1] = compound: CS(=O)(=O)N1CCN(Cc2cc3nc(-c4cccc5[nH]ncc45)nc(N4CCOCC4)c3s2)CC1 [Pictilisib] + Nc1ncn([C@H]2C[C@H](O)[C@@H](CO)O2)c(=O)n1 [Decitabine] (partner 2 µM)
How it was run: (§1)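 Relative viability was taken as the ratio of nuclei in treated wells to nuclei in vehicle wells. Lung cancer cell lines in 1536-well plates received compounds by pin tool one day after seeding, either one drug alone or a fixed anchor-drug dose plus five library-drug doses (not always all listed) in √10 steps. Nuclei were counted on 4× images after 5 days of treatment, and values are medians of duplicate plates.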

[2] = compound: NC1(c2ccc(-c3nc4ccn5c(=O)[nH]nc5c4cc3-c3ccccc3)cc2)CCC1 [MK-2206] + Cc1cc(Nc2cc(N3CCN(C)CC3)nc(Sc3ccc(NC(=O)C4CC4)cc3)n2)n[nH]1 [Tozasertib] (partner 0.1 µM)
How it was run: as §1

[3] = compound: NC1(c2ccc(-c3nc4ccn5c(=O)[nH]nc5c4cc3-c3ccccc3)cc2)CCC1 [MK-2206] + O=C(c1cc(Cc2n[nH]c(=O)c3ccccc23)ccc1F)N1CCN(C(=O)C2CC2)CC1 [Olaparib] (partner 8 µM)
How it was run: as §1

[4] = compound: CS(=O)(=O)N1CCN(Cc2cc3nc(-c4cccc5[nH]ncc45)nc(N4CCOCC4)c3s2)CC1 [Pictilisib] + CC(C)C[C@H](NC(=O)[C@H](Cc1ccccc1)NC(=O)c1cnccn1)B(O)O [Bortezomib] (partner 0.002 µM)
How it was run: as §1

[5] = compound: CS(=O)(=O)N1CCN(Cc2cc3nc(-c4cccc5[nH]ncc45)nc(N4CCOCC4)c3s2)CC1 [Pictilisib] + CC1(C)CCC(c2ccc(Cl)cc2)=C(CN2CCN(c3ccc(C(=O)NS(=O)(=O)c4ccc(N[C@H](CCN5CCOCC5)CSc5ccccc5)c(S(=O)(=O)C(F)(F)F)c4)cc3)CC2)C1 [Navitoclax] (partner 0.5 µM)
How it was run: as §1

Cell Line | relative viability ([1]; first compound 0.02 µM) | relative viability ([1]; first compound 0.06325 µM) | relative viability ([1]; first compound 0.6325 µM) | relative viability ([1]; first compound 2 µM) | relative viability ([2]; first compound 0.01 µM) | relative viability ([2]; first compound 0.03162 µM) | relative viability ([2]; first compound 0.3162 µM) | relative viability ([2]; first compound 1 µM) | relative viability ([3]; first compound 0.01 µM) | relative viability ([3]; first compound 0.03162 µM) | relative viability ([3]; first compound 0.3162 µM) | relative viability ([3]; first compound 1 µM) | relative viability ([4]; first compound 0.02 µM) | relative viability ([4]; first compound 0.06325 µM) | relative viability ([4]; first compound 0.6325 µM) | relative viability ([4]; first compound 2 µM) | relative viability ([5]; first compound 0.02 µM) | relative viability ([5]; first compound 0.06325 µM) | relative viability ([5]; first compound 0.6325 µM) | relative viability ([5]; first compound 2 µM)
NCI-H1666 | 0.659 | 0.719 | 0.702 | 0.574 | 0.636 | 0.631 | 0.647 | 0.594 | 0.702 | 0.794 | 0.802 | 0.774 | 0.854 | 0.744 | 0.545 | 0.388 | 0.972 | 0.835 | 0.62 | 0.438
NCI-H1734 | 0.472 | 0.481 | 0.418 | 0.338 | 0.28 | 0.244 | 0.261 | 0.252 | 0.63 | 0.667 | 0.648 | 0.507 | 0.995 | 0.903 | 0.585 | 0.335 | 0.797 | 0.874 | 0.554 | 0.264
NCI-H1755 | 0.743 | 0.667 | 0.748 | 0.565 | 0.647 | 0.549 | 0.582 | 0.513 | 0.875 | 0.929 | 0.901 | 0.825 | 1.01 | 0.906 | 0.86 | 0.339 | 1.01 | 1 | 0.889 | 0.571
NCI-H1915 | 0.259 | 0.251 | 0.259 | 0.283 | 0.486 | 0.431 | 0.432 | 0.394 | 0.238 | 0.246 | 0.257 | 0.254 | 0.981 | 1.03 | 0.606 | 0.9 | 0.811 | 0.789 | 0.797 | 0.789
NCI-H1975 | 0.385 | 0.377 | 0.329 | 0.257 | 0.798 | 0.66 | 0.573 | 0.535 | 0.705 | 0.782 | 0.764 | 0.663 | 0.358 | 0.443 | 0.284 | 0.239 | 1.02 | 0.936 | 0.707 | 0.314
NCI-H1993 | 0.692 | 0.483 | 0.459 | 0.458 | 0.611 | 0.542 | 0.541 | 0.525 | 0.941 | 1.05 | 0.99 | 0.652 | 0.984 | 1.04 | 0.601 | 0.448 | 0.943 | 0.845 | 0.664 | 0.637
NCI-H2009 | 0.443 | 0.406 | 0.412 | 0.329 | 0.657 | 0.674 | 0.677 | 0.639 | 0.703 | 0.662 | 0.701 | 0.704 | 1.06 | 1.05 | 0.871 | 0.671 | 1.16 | 1.19 | 1.15 | 0.958
NCI-H2023 | 0.211 | 0.2 | 0.215 | 0.148 | 0.345 | 0.347 | 0.239 | 0.197 | 0.463 | 0.506 | 0.436 | 0.44 | 1.17 | 0.764 | 0.511 | 0.223 | 0.959 | 0.965 | 0.734 | 0.313
